This is an account of results in paper PMC6450568 (Bioorganic & medicinal chemistry letters, 2019).

As usually defined, the IC50 is the concentration at which inhibition is half-maximal. A low value points to inhibition by little substance. By Kd is commonly meant the free concentration of one partner at which half of the binding sites on the other are occupied at equilibrium, for simple one-to-one binding. Low values mean tighter binding, high ones weaker binding.

One assay deals with GroEL ATPase (Escherichia coli, UniProt P0A6F5). Nature of the assay: biochemical.
The target in assay [1] is T1, native MDH (malate dehydrogenase) reporter enzyme (Sus scrofa, UniProt P00346).
T1 sequence (P00346 25-338): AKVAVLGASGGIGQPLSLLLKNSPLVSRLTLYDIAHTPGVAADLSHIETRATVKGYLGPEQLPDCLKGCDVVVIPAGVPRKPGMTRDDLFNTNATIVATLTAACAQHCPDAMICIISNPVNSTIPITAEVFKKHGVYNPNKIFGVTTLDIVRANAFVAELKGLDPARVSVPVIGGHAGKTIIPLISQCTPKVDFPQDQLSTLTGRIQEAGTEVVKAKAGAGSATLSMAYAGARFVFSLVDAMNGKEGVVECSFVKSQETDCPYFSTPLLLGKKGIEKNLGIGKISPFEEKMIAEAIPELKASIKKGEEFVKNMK
Nature of the assay: Native MDH enzymatic reporter counter-screen. The assay is classed as biochemical.

The target in assay [2] is human HSP60/10 chaperonin system (Homo sapiens, UniProt P10809). Nature of the assay: HSP60/10-dMDH refolding assay. The assay is classed as biochemical.
Assay [3] concerns the target T2, native Rho (rhodanese) reporter enzyme (Bos taurus, UniProt P00586).
T2 sequence (P00586 2-297 limits assumed): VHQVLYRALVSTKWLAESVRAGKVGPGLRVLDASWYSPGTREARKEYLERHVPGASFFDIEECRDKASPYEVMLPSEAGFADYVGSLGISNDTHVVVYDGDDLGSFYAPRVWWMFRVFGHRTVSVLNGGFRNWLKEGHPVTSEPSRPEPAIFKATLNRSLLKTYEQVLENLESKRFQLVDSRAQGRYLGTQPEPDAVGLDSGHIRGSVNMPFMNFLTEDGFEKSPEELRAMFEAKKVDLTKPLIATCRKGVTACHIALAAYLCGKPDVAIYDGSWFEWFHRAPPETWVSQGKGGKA
Nature of the assay: Native Rho enzymatic reporter counter-screen. It counts as biochemical.

In assay [4] the target is T3, E. coli GroEL/ES chaperonin system (Escherichia coli, UniProt P0A6F5). Nature of the assay: High-throughput screens of LOPAC and MicroSource Spectrum libraries. It counts as biochemical. The following applies: both GroEL/ES-dMDH and GroEL/ES-dRho screens, single concentration.
Assay [5] deals with T3, E. coli GroEL/ES chaperonin system. Nature of the assay: biochemical.
The target in the next assay is E. coli GroEL (Escherichia coli, UniProt P0A6F5). Nature of the assay: Isothermal Titration Calorimetry of suramin binding to GroEL. As to conditions: ITC, average of triplicate analyses. For orientation: ITC needs no label: the signal is the heat of the interaction.
Assay [6] concerns the target T3, E. coli GroEL/ES chaperonin system. Nature of the assay: biochemical. The source holds these as a separate data set.
Setting [7] is: Biochemical Assay IC50, GroEL/ES-mediated refolding of dMDH, dose-response.

Structures can show the parent of a compound that is named as a salt. Where two headings read alike, the source gives them in different places. Bounds are passed on as bounds.

Chain of E. coli GroEL (P0A6F5 2-548): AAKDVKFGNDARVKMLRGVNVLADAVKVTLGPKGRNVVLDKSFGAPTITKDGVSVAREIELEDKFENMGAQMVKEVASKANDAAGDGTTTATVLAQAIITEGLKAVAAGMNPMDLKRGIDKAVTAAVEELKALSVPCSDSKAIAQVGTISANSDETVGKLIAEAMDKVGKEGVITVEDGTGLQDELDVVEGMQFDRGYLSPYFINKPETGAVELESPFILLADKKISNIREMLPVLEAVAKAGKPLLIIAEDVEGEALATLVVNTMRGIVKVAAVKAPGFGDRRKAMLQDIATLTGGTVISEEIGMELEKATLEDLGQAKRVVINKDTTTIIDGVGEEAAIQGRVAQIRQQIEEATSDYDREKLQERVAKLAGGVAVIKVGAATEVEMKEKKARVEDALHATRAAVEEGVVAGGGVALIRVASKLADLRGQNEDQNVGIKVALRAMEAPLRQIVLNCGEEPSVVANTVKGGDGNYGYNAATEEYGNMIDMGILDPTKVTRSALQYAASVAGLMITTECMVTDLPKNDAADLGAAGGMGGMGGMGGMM
T3 sequence (P0A6F5 2-548): as above
Chain of human HSP60/10 chaperonin system (P10809 27-573): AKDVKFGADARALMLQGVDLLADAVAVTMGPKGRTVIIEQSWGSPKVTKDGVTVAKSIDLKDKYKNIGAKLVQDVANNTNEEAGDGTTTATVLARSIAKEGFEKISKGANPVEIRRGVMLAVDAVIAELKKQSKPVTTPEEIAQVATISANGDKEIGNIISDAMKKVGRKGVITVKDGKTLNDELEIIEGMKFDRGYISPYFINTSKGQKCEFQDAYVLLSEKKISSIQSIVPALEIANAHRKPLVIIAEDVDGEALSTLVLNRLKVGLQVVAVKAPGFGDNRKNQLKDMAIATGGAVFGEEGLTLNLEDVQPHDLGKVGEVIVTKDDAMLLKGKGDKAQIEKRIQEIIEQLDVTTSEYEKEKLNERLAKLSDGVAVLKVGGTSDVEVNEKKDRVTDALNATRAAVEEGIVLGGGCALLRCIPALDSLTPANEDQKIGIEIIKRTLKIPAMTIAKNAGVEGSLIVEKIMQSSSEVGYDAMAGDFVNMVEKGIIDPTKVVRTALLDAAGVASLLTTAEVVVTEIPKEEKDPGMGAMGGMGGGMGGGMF
Chain of GroEL ATPase (P0A6F5 2-548): as the sequence (P0A6F5 2-548) above

Consider `COc1cc(-c2ccc(/N=N/c3ccc4c(S(=O)(=O)O)cc(S(=O)(=O)O)c(N)c4c3O)c(OC)c2)ccc1/N=N/c1ccc2c(S(=O)(=O)O)cc(S(=O)(=O)O)c(N)c2c1O` [Compound 22, Pontamine sky blue], for which the IC50 was greater than 250 µM against GroEL ATPase, greater than 63 µM in assay [1] and 6.8 µM in assay [2].

`Cc1ccc(C(=O)Nc2ccc(S(=O)(=O)O)c3cc(S(=O)(=O)O)cc(S(=O)(=O)O)c23)cc1NC(=O)c1cccc(NC(=O)Nc2cccc(C(=O)Nc3cc(C(=O)Nc4ccc(S(=O)(=O)O)c5cc(S(=O)(=O)O)cc(S(=O)(=O)O)c45)ccc3C)c2)c1` [Compound 28, Suramin] showed an IC50 in assay [3] greater than 100 µM. For the same molecule, in assay [4], the “inhibition cutoff in primary and secondary high-throughput screens” value is given as “did not meet the 50% inhibition cutoff”. Also, in assay [1], the IC50 is greater than 63 µM. Also, the IC50 in assay [5] (Assay IC50, GroEL/ES-dMDH Refolding, Table 1) came out at 8.1 µM. The molecule further came in with an IC50 in assay [5] (setting [7]) of 8.1 µM. This molecule returned an IC50 in assay [5] (IC50 values for inhibiting GroEL/ES refolding functions, approximate, dMDH and dRho refolding assays together) of 10 to 15 µM. On E. coli GroEL, the affinity, expressed as Kd, was 21 µM; the “Log(Kd/μM)” value came to 1.31 ± 0.30; the TΔS came out at 4.15 ± 0.72 kcal/mol; the ΔG was -6.22 ± 0.41 kcal/mol. Besides, at E. coli GroEL, the ΔH was -2.07 ± 0.36 kcal/mol and the ΔS came out at 0.014 ± 0.002 kcal/mol·K. For the same molecule, the “Stoichiometry n, Molecule : GroEL oligomer” value on E. coli GroEL (per GroEL tetradecamer, listed as Suramin (28)) stood at 9.4 ± 0.6. In addition, the “Stoichiometry n, Molecule : GroEL monomer” value on E. coli GroEL (single-site binding model) turned out to be 0.67 ± 0.05.

Turning to `CC[C@H](C)[C@H]1O[C@]2(C=C[C@@H]1C)C[C@@H]1C[C@@H](C/C=C(\C)[C@@H](O[C@H]3C[C@H](OC)[C@@H](O[C@H]4C[C@H](OC)[C@@H](O)[C@H](C)O4)[C@H](C)O3)[C@@H](C)/C=C/C=C3\CO[C@@H]4[C@H](O)C(C)=C[C@@H](C(=O)O1)[C@]34O)O2` [Compound 32, Abamectin (Avermectin b1a)], the figures for the IC50 in assay [3] and in assay [1] were greater than 100 µM and greater than 63 µM, respectively.

For the molecule `CC[C@H](C)C1O[C@]2(C=C[C@@H]1C)C[C@@H]1C[C@@H](C/C=C(\C)[C@@H](O[C@H]3C[C@H](OC)[C@@H](O[C@H]4C[C@H](OC)[C@H](NC(C)=O)[C@H](C)O4)[C@H](C)O3)[C@@H](C)/C=C/C=C3\CO[C@@H]4[C@H](O)C(C)=C[C@@H](C(=O)O1)[C@]34O)O2` (stereo partly drawn) [Compound 33, Eprinomectin], the IC50 is greater than 100 µM in assay [3] and greater than 63 µM in assay [1].

For `COc1ccc(C(=O)/C=C/c2ccccc2)cc1` [Compound 35, 4’-Methoxychalcone], the results for the IC50 in assay [3] and in assay [1] were greater than 100 µM and greater than 63 µM, respectively.

On to `C[C@H](CCC(=O)O)[C@H]1CC[C@H]2[C@@H]3CC[C@@H]4C[C@H](O)CC[C@]4(C)[C@H]3CC[C@]12C` [Compound 38, Lithocholic acid], for which the figures for the IC50 in assay [3] and in assay [1] were greater than 100 µM and greater than 63 µM, respectively.

With `CCc1oc2ccccc2c1C(=O)c1cc(Br)c(O)c(Br)c1` [Compound 40, Benzbromarone], the IC50 in assay [3] was greater than 100 µM; in assay [1], greater than 63 µM.

`C=C1CC[C@H](O)C/C1=C/C=C1\CCC[C@]2(C)[C@@H]([C@H](C)CCCC(C)C)CC[C@@H]12` [Compound 41, Cholecalciferol (vtamin D3)]: the IC50 in assay [3] is greater than 100 µM; in assay [1], greater than 63 µM.

On to `O=C(/C=C/c1ccc(O)cc1)c1ccccc1` [Compound 43, 4-Hydroxychalcone], for which the IC50 in assay [3] was greater than 100 µM; in assay [1], greater than 63 µM.

Consider `O=C(/C=C/c1ccccc1)c1ccc(O)cc1` [Compound 44, 4’-Hydroxychalcone], for which the IC50 is greater than 100 µM in assay [3] and greater than 63 µM in assay [1].

For `Oc1ccc(Cl)cc1Cc1cc(Cl)ccc1O` [Compound 45, Dichlorophen], the IC50 in assay [3] is greater than 100 µM; in assay [1], greater than 63 µM.

Regarding `CC(COc1ccccc1)N(CCCl)Cc1ccccc1` (stereo not drawn) [Compound 47, Phenoxybenzamine HCl], the IC50 in assay [3] is greater than 100 µM; in assay [1], greater than 63 µM.

For the molecule `CC[C@H]1OC(=O)[C@H](C)[C@@H](O[C@H]2C[C@@](C)(OC)[C@@H](O)[C@H](C)O2)[C@H](C)[C@@H](O[C@@H]2O[C@H](C)C[C@H](N(C)C)[C@H]2O)[C@](C)(O)C[C@@H](C)C(=O)[C@H](C)[C@@H](O)[C@]1(C)O` [Compound 55, (−)-Erythromycin], the IC50 in assay [3] was greater than 100 µM; in assay [1], greater than 63 µM.

Regarding `CCOc1nc2cccc(C(=O)O)c2n1Cc1ccc(-c2ccccc2-c2nnn[nH]2)cc1` [Compound 56, Candesartan], the IC50 in assay [3] is greater than 100 µM; in assay [1], greater than 63 µM.

With `CC(C)(C)NCC(O)c1ccc(O)c(CO)c1` (stereo not drawn) [Compound 57, Albuterol], the IC50 in assay [3] was greater than 100 µM; in assay [1] it was greater than 63 µM.

Take `CCCCN1CCC(COC(=O)c2cc(Cl)c(N)c3c2OCCO3)CC1` [Compound 59, SB 204070]: the IC50 in assay [3] was greater than 100 µM; in assay [1] it was greater than 63 µM.

Regarding `CC(C)n1c(/C=C/C(O)CC(O)CC(=O)O)c(-c2ccc(F)cc2)c2ccccc21` (stereo not drawn) [Compound 60, Fluvastatin sodium], the IC50 in assay [3] is greater than 100 µM; at GroEL ATPase, greater than 250 µM; in assay [6] it was greater than 250 µM; in assay [1], greater than 63 µM; in assay [2], greater than 100 µM; in assay [5] (setting [7]) it was greater than 100 µM.
